The text below walks through data of patent US8143282B2, “Heterocyclic compounds” (S*BIO Pte Ltd., priority 2005, dated 2012).

In series [1] the test system is PC3. In words: Cell-based proliferation assay for GI50 (CyQUANT), PC3. The settings on record: Homo sapiens, PC-3; PC3, 96 h treatment; read-out: Cellular or Growth Inhibition Activity, GI50, PC3. The procedure: (§1) Human colon cancer cell lines (Colo205, HCT116), Ovarian cancer cell line (A2780), Hepatoma cell line (HEP3B), Prostate cancer cell line (PC3) were obtained from ATCC or ECACC. Colo205 cells were cultivated in RPMI 1640 containing 2 mM L-Glutamine, 5% FBS, 1.0 mM Na Pyruvate, 1 U/ml of penicillin and 1 μg of streptomycin. HCT116 cells were cultivated in McCoy's containing RPMI 1640 containing 2 mM L-Glutamine, 5% FBS, 1 U/ml of penicillin and 1 μg of streptomycin. A2780 cells were cultivated in RPMI 1640 containing 2 mM L-Glutamine, 5% FBS, 1 U/ml of penicillin and 1 μg of streptomycin. HEP3B cells were cultivated in EMEM containing 2 mM L-glutamine, 5% FBS, 1% non essential amino acid, 1 mM Na Pyruvate, 1 U/ml of penicillin and 1 μg of streptomycin. PC3 cells were cultivated in F12K, 2 mM L-glutamine, 5% FBS, 1 U/ml of penicillin and 1 μg of streptomycin. PC3, Colo205, and HCT116 cells were seeded in 96-wells plate at 1000, 5000 and 6000 cells per well respectively. A2780 and HEP3B cells were seeded in 96-wells plate at 4000 cells per well respectively. The plates were incubated at 37° C., 5% CO2, for 24 h. Cells were treated with compounds at various concentrations for 96 h. Cell growth was then monitored using CyQUANT® cell proliferation assay (Invitrogen Pte Ltd). Dose response curves were plotted to determine GI50 values for the compounds using XL-fit (ID Business Solution, Emeryville, Calif.). GI50 is defined as the concentration of compound required for 50% inhibition of cell growth.

In series [2] the test system is A2780. Briefly: Cell-based proliferation assay for GI50 (CyQUANT), A2780. The settings on record: Homo sapiens; A2780, 96 h treatment; read-out: Cellular or Growth Inhibition Activity, GI50, A2780. The procedure: as §1
Series [3] relates to HCT116. In words: Cell-based proliferation assay for GI50 (CyQUANT), HCT116. The note with it: Homo sapiens, HCT-116; HCT116, 96 h treatment; read-out: Cellular or Growth Inhibition Activity, GI50, HCT116. The procedure:
as §1

Series [4] has as its system Colo205 cells. In words: Cell-based proliferation assay for GI50 (CyQUANT), Colo205. The settings on record: Homo sapiens, COLO 205, 96 h treatment, read-out: Cellular or Growth Inhibition Activity in Colo205 cells, GI50. In outline:
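Cells were seeded at 1000 (PC3), 5000 (Colo205), 6000 (HCT116) or 4000 (HEP3B) per well and left 24 h at 37° C. Compound treatment lasted 96 h. Growth was read by CyQUANT, and GI50 (50% growth inhibition) came from dose-response curves.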

Series [5] addresses T1, HDAC1 enzyme (Homo sapiens, UniProt Q13547).
T1 construct: Amplification of human HDAC1 coding region from this cDNA library was cloned separately into the baculovirus expression pDEST20 vector; made in house; host or cells: SF9 insect cells, pDEST20-HDAC1 baculovirus
Briefly: In vitro HDAC assay for determination of IC50 values (BIOMOL fluorescent-based HDAC activity assay). The class given is biochemical. In outline: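 Recombinant GST-HDAC1, cloned from SW620 cDNA and expressed in Sf9 cells, tested in a fluorogenic Fluor de Lys deacetylase assay. Developer was added for 10 min and fluorescence read at 360/460 nm. IC50 came from concentration series.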

The nature of series [6]: Measurement of microsomal stability. The class given is in vitro ADME. The settings on record: pooled human liver microsomes, pH 7.4; human liver microsome, 5 μM test compound, 1.0 mg/ml microsomal protein. On the procedure:
Metabolic stability measurements in the in vitro using liver microsomes aids in the prediction of the in vivo hepatic clearance and the compound stability towards phase I biotransformation reactions mediated by P450 isozymes.
Pooled human liver microsome (HLM was purchased from BD Gentest (BD BioSciences). The incubations consisted of test compound (5 μM) or control compound (Verapamil), NADPH-generating system solution A (25 mM NADP^+, 66 mM glucose-6-phosphate, 66 mM MgCl2 in H2O), NADPH-generating system solution B (40 U/ml glucose-6-phosphate dehydrogenase in 5 mM sodium citrate) and 1.0 mg/ml microsomal protein, respectively, in 100 mM potassium phosphate buffer (pH 7.4). Samples were incubated for 0, 5, 15, 30, 45, 60 min. Reaction was terminated with ice-cold 80% acetonitrile and 20% DMSO. Samples were subsequently centrifuged at 4° C. for 15 min at 2,000 rpm. 100 μL of the supernatant was transferred to the LC-MS Plate for analysis. Before quantitative analysis, the compound was tuned in LC/MS machine to get the optimized MS condition. Liquid chromatography was performed on a Luna C18 column (Phenomenex U.S.A, Torrance, Calif.) (2×50 mm, 5 μM). % of the compound remaining (by area) at each time point is calculated with respect to time 0 min. Plot % remaining against time (min) to obtain the curve and use the Prism software to obtain the t1/2.

SMILES strings stand for the structures.

T1 sequence (Q13547 whole entry): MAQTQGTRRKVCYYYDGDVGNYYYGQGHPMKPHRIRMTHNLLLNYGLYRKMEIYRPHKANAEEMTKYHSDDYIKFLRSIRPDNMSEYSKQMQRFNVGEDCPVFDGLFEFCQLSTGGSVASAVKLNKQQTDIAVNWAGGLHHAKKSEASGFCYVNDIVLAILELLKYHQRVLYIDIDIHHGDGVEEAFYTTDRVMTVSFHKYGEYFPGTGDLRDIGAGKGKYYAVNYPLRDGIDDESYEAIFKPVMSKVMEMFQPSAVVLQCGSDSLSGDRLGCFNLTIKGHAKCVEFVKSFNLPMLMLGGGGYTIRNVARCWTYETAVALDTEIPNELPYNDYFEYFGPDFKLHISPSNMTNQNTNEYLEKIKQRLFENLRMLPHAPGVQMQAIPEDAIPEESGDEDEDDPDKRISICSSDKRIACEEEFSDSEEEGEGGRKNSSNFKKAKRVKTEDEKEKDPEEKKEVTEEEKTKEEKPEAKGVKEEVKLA

Consider `CCN(CC)CCn1c(CC(C)C)nc2cc(/C=C/C(=O)NO)ccc21` [Compound 7, 3-[1-(2-Diethylamino-ethyl)-2-isobutyl-1H-benzoimidazol-5-yl]-N-hydroxy-acrylamide], for which the GI50 in series [1] is 500 to 1000 nM; in series [2] it was 1000 to 5000 nM; in series [3], 1000 to 5000 nM; in series [4], 810 nM.

Turning to `C#CCCc1nc2cc(/C=C/C(=O)NO)ccc2n1CCN(CC)CC` [Compound 12, 3-[2-But-3-ynyl-1-(2-diethylamino-ethyl)-1H-benzoimidazol-5-yl]-N-hydroxy-acrylamide], the IC50 in series [5] worked out at 64 nM. In series [6], the half-life at 5 μM was more than 30 min. Moreover, in series [4], the 50% growth inhibitory concentration (GI50) came out at 510 nM.

With `CCN(CC)CCn1c(CCC(F)(F)F)nc2cc(/C=C/C(=O)NO)ccc21` [Compound 14, 3-[1-(2-Diethylamino-ethyl)-2-(3,3,3-trifluoro-propyl)-1H-benzoimidazol-5-yl]-N-hydroxy-acrylamide], the IC50 in series [5] came to 77 nM. In series [6], this molecule gave a half-life at 5 μM of more than 30 min. The GI50 in series [4] was 630 nM.

For the molecule `CC(C)NCCn1c(CC(C)(C)C)nc2cc(/C=C/C(=O)NO)ccc21` [Compound 19], the IC50 in series [5] was 64 nM. In series [6], this molecule yielded a half-life at 5 μM of more than 30 min. Moreover, the 50% growth inhibitory concentration (GI50) in series [4] was determined as 530 nM.

As to `CC/C=C\CCc1nc2cc(/C=C/C(=O)NO)ccc2n1CC(C)(C)CN(C)C` [Compound 22, 3-[1-(3-Dimethylamino-2,2-dimethyl-propyl)-2-hex-3-enyl-1H-benzoimidazol-5-yl]-N-hydroxy-acrylamide], the GI50 in series [1] is less than 500 nM; in series [2], less than 500 nM; in series [3] it was 1000 to 5000 nM; in series [4] it was 750 nM. This molecule had a 50% inhibitory concentration (IC50) in series [5] of 64 nM.

On to `CC(Cc1nc2cc(/C=C/C(=O)NO)ccc2n1CC(C)(C)CN(C)C)CC(C)(C)C` (stereo not shown) [Compound 23, 3-[1-(3-Dimethylamino-2,2-dimethyl-propyl)-2-(2,4,4-trimethyl-pentyl)-1H-benzoimidazol-5-yl]-N-hydroxy-acrylamide], for which the concentration for 50% growth inhibition (GI50) in series [1] was less than 500 nM; in series [2], less than 500 nM; in series [3], 500 to 1000 nM; in series [4] it was 190 nM. Also, the IC50 in series [5] was found to be 45 nM.

Regarding `CC/C=C\CCc1nc2cc(/C=C/C(=O)NO)ccc2n1CCNCC` [Compound 30, 3-[1-(2-Ethylamino-ethyl)-2-hex-3-enyl-1H-benzoimidazol-5-yl]-N-hydroxy-acrylamide], the concentration for 50% growth inhibition (GI50) in series [1] was less than 500 nM; in series [2] it was less than 500 nM; in series [3] it was 500 to 1000 nM; in series [4], 310 nM.

With `CC(C)Cc1nc2cc(/C=C/C(=O)NO)ccc2n1CCNC(C)C` [Compound 35, N-Hydroxy-3-[2-isobutyl-1-(2-isopropylamino-ethyl)-1H-benzoimidazol-5-yl]-acrylamide], the IC50 in series [5] was 82 nM. The half-life at 5 μM in series [6] is more than 30 min. The GI50 in series [4] was found to be 660 nM.

Take `CCNCCn1c(CC(C)CC(C)(C)C)nc2cc(/C=C/C(=O)NO)ccc21` (stereo not shown) [Compound 40, 3-[1-(2-Ethylamino-ethyl)-2-(2,4,4-trimethyl-pentyl)-1H-benzoimidazol-5-yl]-N-hydroxy-acrylamide]: the GI50 in series [1] was less than 500 nM; in series [2], less than 500 nM; in series [3] it was less than 500 nM; in series [4], 160 nM. In addition, the IC50 in series [5] worked out at 27 nM. In series [6], this molecule returned a half-life at 5 μM of more than 30 min.

With `CCCCc1nc2cc(/C=C/C(=O)NO)ccc2n1CCNCC` [Compound 44, 3-[2-Butyl-1-(2-ethylamino-ethyl)-1H-benzoimidazol-5-yl]-N-hydroxy-acrylamide], the 50% growth inhibitory concentration (GI50) in series [1] is less than 500 nM; in series [2] it was 500 to 1000 nM; in series [3], 1000 to 5000 nM; in series [4], 870 nM. Also, in series [5], the concentration for half-maximal inhibition (IC50) stood at 54 nM. Besides, in series [6], the half-life at 5 μM is more than 30 min.

Take `CCCCCCc1nc2cc(/C=C/C(=O)NO)ccc2n1CCNC(C)C` [Compound 50, 3-[2-Hexyl-1-(2-isopropylamino-ethyl)-1H-benzoimidazol-5-yl]-N-hydroxy-acrylamide]: the GI50 in series [1] is less than 500 nM; in series [2], less than 500 nM; in series [3] it was less than 500 nM; in series [4], 170 nM.

For the molecule `CCCCCCc1nc2cc(/C=C/C(=O)NO)ccc2n1CCNCC` [Compound 52, 3-[1-(2-Ethylamino-ethyl)-2-hexyl-1H-benzoimidazol-5-yl]-N-hydroxy-acrylamide], the concentration for 50% growth inhibition (GI50) in series [1] was less than 500 nM; in series [2], less than 500 nM; in series [3], less than 500 nM; in series [4], 210 nM. The molecule also had a 50% inhibitory concentration (IC50) in series [5] of 25 nM. The molecule also yielded a half-life at 5 μM in series [6] of more than 30 min.

For the molecule `CCCCc1nc2cc(/C=C/C(=O)NO)ccc2n1CCN(C)C(C)C` [Compound 78, 3-{2-Butyl-1-[2-(isopropyl-methyl-amino)-ethyl]-1H-benzoimidazol-5-yl}-N-hydroxy-acrylamide], the 50% inhibitory concentration (IC50) in series [5] was 44 nM. Also, in series [6], the half-life at 5 μM is more than 30 min. In addition, in series [4], the GI50 came out at 540 nM.

As to `CCCCCCc1nc2cc(/C=C/C(=O)NO)ccc2n1C1CCNC1` (stereo not shown) [Compound 80, 3-(2-Hexyl-1-pyrrolidin-3-yl-1H-benzoimidazol-5-yl)-N-hydroxy-acrylamide], in series [5], the half-inhibitory concentration (IC50) is 40 nM. Also, the half-life at 5 μM in series [6] is more than 30 min. Besides, the 50% growth inhibitory concentration (GI50) in series [4] came out at 1370 nM.

Regarding `CCCCCN(CC)CCn1cnc2cc(/C=C/C(=O)NO)ccc21` [Compound 88, 3-{1-[2-(Ethyl-pentyl-amino)-ethyl]-1H-benzoimidazol-5-yl}-N-hydroxy-acrylamide], the 50% inhibitory concentration (IC50) in series [5] was determined as 47 nM. Moreover, the half-life at 5 μM in series [6] is more than 30 min. The GI50 in series [4] came out at 550 nM.

For the molecule `CCCCN(CCn1cnc2cc(/C=C/C(=O)NO)ccc21)C(C)C` [Compound 108, 3-{1-[2-(Butyl-isopropyl-amino)-ethyl]-1H-benzoimidazol-5-yl}-N-hydroxy-acrylamide], in series [5], the IC50 came to 43 nM. Further, the half-life at 5 μM in series [6] was more than 30 min. Moreover, the GI50 in series [4] is 440 nM.
